Marks after values point to notes of the source that are not given here.
How the values were obtained:
[1] = system: Yap1 mRNA; assay: Yap1 mRNA in SCC-15 cells, RNA analysis (Example 41); assay type: cell-based, human; conditions: free uptake, approximately 48 hours
Protocol: Modified oligonucleotides described in the studies above were tested at various doses in tongue squamous cell carcinoma cell line SCC-15. A control oligonucleotide 792169, described herein above, was also tested.
Cultured SCC-15 cells at a density of 5000 cells per well were treated using free uptake with modified oligonucleotides diluted to concentrations described in the tables below. After approximately 48 hours, Yap1 mRNA levels were measured as previously described using the Human Yap1 primer-probe set RTS4814. Yap1 mRNA levels were normalized to actin-beta content, as measured by primer probe set RTS5002. Results are presented in the tables below as percent control of the amount of Yap1 mRNA relative to untreated control cells (% UTC).

[2] = system: NCI H747 cells; assay: Cell proliferation assay in NCI H747 cells, CellTiter-Glo (Example 31); assay type: cell-based, human; conditions: free uptake, 7 days
Protocol: Modified oligonucleotides described in the studies above were tested at various doses in colorectal adenocarcinoma cell line NCI H747. A control oligonucleotide 792169 was also tested.
Cultured NCI H747 cells at a density of 3000 cells/well were treated using free uptake with modified oligonucleotides diluted to concentrations described in the tables below. After 7 days, cell proliferation was measured using the luminescent cell viability CellTiter-Glo® 2.0 Assay (Promega). Results are presented in the tables below as percent control of the amount of luminescence in samples treated with modified oligonucleotides relative to untreated control cells (% UTC).

[3] = system: SNU449 cells; assay: Cell proliferation assay in SNU449 cells in combination with sorafenib, CellTiter-Glo (Example 48); assay type: cell-based, human; conditions: 144 hours
Protocol: Modified oligonucleotides described in the studies above were tested at various doses in hepatocellular carcinoma cell line SNU449. ION No. 792169, described herein above, was used as a control modified oligonucleotide. ION No. 715487 was used to target Yap1 RNA. […] After approximately 48 hours, Yap1 mRNA levels were measured.
144 hours post treatment, proliferation of SNU449 cells was measured using the luminescent cell viability CellTiter-Glo® 2.0 Assay (Promega). Results are presented in the tables below as percent control of the amount of luminescence in samples treated with modified oligonucleotides relative to untreated control cells (% UTC).

[4] = system: SNU449 xenograft tumor; assay: Tumor volume in SNU449 xenograft tumor model, alone and in combination with sorafenib (second Example 30); assay type: in vivo, human; conditions: SNU449 xenograft, oligonucleotide 50 mg/kg, sorafenib 30 mg/kg orally
[5] = system: Yap1 mRNA; assay: Yap1 mRNA in UPCI:SCC090 cells, RNA analysis (Example 47); assay type: cell-based, human; conditions: free uptake, approximately 48 hours
Protocol: Modified oligonucleotides described in the studies above were tested at various doses in tongue squamous cell carcinoma cell line UPCI:SCC090. A control oligonucleotide 792169, described herein above, was also tested.
Cultured UPCI:SCC090 cells at a density of 5000 cells per well were treated using free uptake with modified oligonucleotides diluted to concentrations described in the tables below. After approximately 48 hours, Yap1 mRNA levels were measured as previously described using the Human Yap1 primer-probe set RTS4814. Yap1 mRNA levels were normalized to actin-beta content, as measured by primer probe set RTS5002. Results are presented in the tables below as percent control of the amount of Yap1 mRNA relative to untreated control cells (% UTC).

[6] = system: Yap1 mRNA; assay: Yap1 mRNA in SNU-899 cells, RNA analysis (Example 43); assay type: cell-based, human; conditions: free uptake, approximately 48 hours
Protocol: Modified oligonucleotides described in the studies above were tested at various doses in laryngeal squamous cell carcinoma cell line SNU-899. A control oligonucleotide 792169, described herein above, was also tested.
Cultured SNU-899 cells at a density of 5000 cells per well were treated using free uptake with modified oligonucleotides diluted to concentrations described in the tables below. After approximately 48 hours, Yap1 mRNA levels were measured as previously described using the Human Yap1 primer-probe set RTS4814. Yap1 mRNA levels were normalized to actin-beta content, as measured by primer probe set RTS5002. Results are presented in the tables below as percent control of the amount of Yap1 mRNA relative to untreated control cells (% UTC).

**Q.** How did the “human Yap1 mRNA expression” value ([1]; 0.04 μM) turn out when “CGCCGATAAGGTACAC (cEt gapmer, phosphorothioate backbone, further chemistry not given here) [ION 792169, reference compound]” was run?
**A.** 91 % UTC

**Q.** What about the “human Yap1 mRNA expression” value ([1]; 0.2 μM) of the same sequence?
**A.** 100 % UTC

**Q.** And the “human Yap1 mRNA expression” value ([1]; 1 μM)?
**A.** 102 % UTC

**Q.** And the “human Yap1 mRNA expression” value ([1]; 5 μM)?
**A.** 105 % UTC

**Q.** What about the “Antiproliferative effect (cell proliferation, luminescence)” value (shortened to “Antiproliferative effect”) ([2]; 0.04 μM) of the same sequence?
**A.** 89 % UTC

**Q.** What about the “Antiproliferative effect” value ([2]; 0.2 μM) of the same sequence?
**A.** 97 % UTC

**Q.** And the “Antiproliferative effect” value ([2]; 1 μM)?
**A.** 91 % UTC

**Q.** What about the “Antiproliferative effect” value ([2]; 5 μM) of the same sequence?
**A.** 80 % UTC

**Q.** And the “Antiproliferative effect” value ([3]; oligonucleotide at 0.04 uM, sorafenib 0 uM)?
**A.** 99 % UTC

**Q.** And the “Antiproliferative effect” value ([3]; oligonucleotide at 0.04 uM, sorafenib 0.37 uM)?
**A.** 103 % UTC

**Q.** What about the “Antiproliferative effect” value ([3]; oligonucleotide at 0.04 uM, sorafenib 3.33 uM) of the same sequence?
**A.** 51 % UTC

**Q.** And the “Antiproliferative effect” value ([3]; oligonucleotide at 0.04 uM, sorafenib 10 uM)?
**A.** 3 % UTC

**Q.** What about the “Antiproliferative effect” value ([3]; oligonucleotide at 0.04 uM, sorafenib […]) of the same sequence?
**A.** 97 % UTC

**Q.** And the “Antiproliferative effect” value ([3]; oligonucleotide at 0.2 uM, sorafenib 0 uM)?
**A.** 97 % UTC

**Q.** What about the “Antiproliferative effect” value ([3]; oligonucleotide at 0.2 uM, sorafenib 0.37 uM) of the same sequence?
**A.** 100 % UTC

**Q.** And the “Antiproliferative effect” value ([3]; oligonucleotide at 0.2 uM, sorafenib 3.33 uM)?
**A.** 30 % UTC

**Q.** What about the “Antiproliferative effect” value ([3]; oligonucleotide at 0.2 uM, sorafenib 10 uM) of the same sequence?
**A.** 4 % UTC

**Q.** What about the “Antiproliferative effect” value ([3]; oligonucleotide at 0.2 uM, sorafenib […]) of the same sequence?
**A.** 91 % UTC

**Q.** What about the “Antiproliferative effect” value ([3]; oligonucleotide at 1 uM, sorafenib 0 uM) of the same sequence?
**A.** 97 % UTC

**Q.** And the “Antiproliferative effect” value ([3]; oligonucleotide at 1 uM, sorafenib 0.37 uM)?
**A.** 95 % UTC

**Q.** What about the “Antiproliferative effect” value ([3]; oligonucleotide at 1 uM, sorafenib 3.33 uM) of the same sequence?
**A.** 27 % UTC

**Q.** And the “Antiproliferative effect” value ([3]; oligonucleotide at 1 uM, sorafenib 10 uM)?
**A.** 3 % UTC

**Q.** What about the “Antiproliferative effect” value ([3]; oligonucleotide at 1 uM, sorafenib […]) of the same sequence?
**A.** 89 % UTC

**Q.** And the “Antiproliferative effect” value ([3]; oligonucleotide at 5 uM, sorafenib 0 uM)?
**A.** 86 % UTC

**Q.** And the “Antiproliferative effect” value ([3]; oligonucleotide at 5 uM, sorafenib 0.37 uM)?
**A.** 84 % UTC

**Q.** And the “Antiproliferative effect” value ([3]; oligonucleotide at 5 uM, sorafenib 3.33 uM)?
**A.** 6 % UTC

**Q.** And the “Antiproliferative effect” value ([3]; oligonucleotide at 5 uM, sorafenib 10 uM)?
**A.** 1 % UTC

**Q.** What about the “Antiproliferative effect” value ([3]; oligonucleotide at 5 uM, sorafenib […]) of the same sequence?
**A.** 68 % UTC

**Q.** And the “Average Tumor Volume” value ([4]; day 43 post tumor implantation)?
**A.** 111 mm^3

**Q.** What about the “Average Tumor Volume” value ([4]; day 46 post tumor implantation) of the same sequence?
**A.** 162 mm^3

**Q.** And the “Average Tumor Volume” value ([4]; day 50 post tumor implantation)?
**A.** 180 mm^3

**Q.** What about the “Average Tumor Volume” value ([4]; day 53 post tumor implantation) of the same sequence?
**A.** 247 mm^3

**Q.** What about the “Average Tumor Volume” value ([4]; day 57 post tumor implantation) of the same sequence?
**A.** 280 mm^3

**Q.** What about the “Average Tumor Volume” value ([4]; day 60 post tumor implantation) of the same sequence?
**A.** 317 mm^3

**Q.** And the “Average Tumor Volume” value ([4]; day 64 post tumor implantation)?
**A.** 397 mm^3

**Q.** And the “Average Tumor Volume” value ([4]; day 67 post tumor implantation)?
**A.** 466 mm^3

**Q.** What about the “Average Tumor Volume” value ([4]; day 71 post tumor implantation) of the same sequence?
**A.** 519 mm^3

**Q.** And the “Average Tumor Volume” value ([4]; day 75 post tumor implantation)?
**A.** 559 mm^3

**Q.** And the “Average Tumor Volume” value ([4]; day 78 post tumor implantation)?
**A.** 634 mm^3

**Q.** What about the “Average Tumor Volume” value ([4]; day 81 post tumor implantation) of the same sequence?
**A.** 681 mm^3

**Q.** What about the “Average Tumor Volume” value ([4]; day 85 post tumor implantation) of the same sequence?
**A.** 785 mm^3

**Q.** And the “Average Tumor Volume” value ([4]; day 88 post tumor implantation)?
**A.** 889 mm^3

**Q.** And the “Average Tumor Volume” value ([4]; day 92 post tumor implantation)?
**A.** 1170 mm^3

**Q.** What about the “Average Tumor Volume” value ([4]; day 94 post tumor implantation) of the same sequence?
**A.** 1215 mm^3

**Q.** What about the “Average Tumor Volume” value ([4]; day 98 post tumor implantation) of the same sequence?
**A.** 1355 mm^3

**Q.** What about the “Average Tumor Volume” value ([4]; day 101 post tumor implantation) of the same sequence?
**A.** 1417 mm^3

**Q.** And the “Average Tumor Volume” value ([4]; day 105 post tumor implantation)?
**A.** 1509 mm^3

**Q.** And the “Average Tumor Volume” value ([4]; day 108 post tumor implantation)?
**A.** 1571 mm^3

**Q.** What about the “Average Tumor Volume” value ([4]; day 119 post tumor implantation) of the same sequence?
**A.** 1697* mm^3

**Q.** What about the “human Yap1 mRNA expression” value ([5]; 0.04 μM) of the same sequence?
**A.** 100 % UTC

**Q.** What about the “human Yap1 mRNA expression” value ([5]; 0.2 μM) of the same sequence?
**A.** 108 % UTC

**Q.** And the “human Yap1 mRNA expression” value ([5]; 1 μM)?
**A.** 112 % UTC

**Q.** What about the “human Yap1 mRNA expression” value ([5]; 5 μM) of the same sequence?
**A.** 84 % UTC

**Q.** What about the “human Yap1 mRNA expression” value ([6]; 0.04 μM) of the same sequence?
**A.** 106 % UTC

**Q.** What about the “human Yap1 mRNA expression” value ([6]; 0.2 μM) of the same sequence?
**A.** 106 % UTC

**Q.** And the “human Yap1 mRNA expression” value ([6]; 1 μM)?
**A.** 111 % UTC

**Q.** And the “human Yap1 mRNA expression” value ([6]; 5 μM)?
**A.** 102 % UTC

From US11214803B2, “Modulators of YAP1 expression” (Ionis Pharmaceuticals, Inc., priority 2019, dated 2022)
